Measured values: US7544373B2, “Minocycline oral dosage forms for the treatment of acne” (Medicis Pharmaceutical Corporation, priority 2007, dated 2009)

Test: Repeat-dose primate toxicology studies
Type: in vivo

CN(C)c1ccc(O)c2c1C[C@H]1C[C@H]3[C@H](N(C)C)C(O)=C(C(N)=O)C(=O)[C@@]3(O)C(O)=C1C2=O [minocycline]
lowest exposure which yields adverse effects (4 weeks): ~15 µg/mL
lowest exposure which yields adverse effects (13 weeks): ~7 µg/mL
